Assay results: the NIST ThermoML archive (doi:10.1021/je034290l)

What was measured:
[1] = excess molar enthalpy (molar enthalpy of mixing); xn = mol fraction of the nth substance listed; conditions: 101.32 kPa, Liquid, Calvet calorimetry
[2] = xn = mol fraction of the nth substance listed; conditions: 101.32 kPa, Liquid

CCCC(=O)OC [methyl butanoate] + CC(C)(C)O
Conditions	excess molar enthalpy [kcal/mol]	excess molar volume [m3/mol]
[1], 299.15 K, x1 = 0.0487	0.0783	–
[1], 299.15 K, x1 = 0.1046	0.158	–
[1], 299.15 K, x1 = 0.1632	0.234	–
[1], 299.15 K, x1 = 0.2233	0.299	–
[1], 299.15 K, x1 = 0.283	0.351	–
[1], 299.15 K, x1 = 0.3383	0.389	–
[1], 299.15 K, x1 = 0.3915	0.415	–
[1], 299.15 K, x1 = 0.4395	0.431	–
[1], 299.15 K, x1 = 0.4853	0.439	–
[1], 299.15 K, x1 = 0.5221	0.441	–
[1], 299.15 K, x1 = 0.5268	0.441	–
[1], 299.15 K, x1 = 0.5545	0.439	–
[1], 299.15 K, x1 = 0.5745	0.437	–
[1], 299.15 K, x1 = 0.636	0.417	–
[1], 299.15 K, x1 = 0.7063	0.379	–
[1], 299.15 K, x1 = 0.778	0.323	–
[1], 299.15 K, x1 = 0.8552	0.24	–
[1], 299.15 K, x1 = 0.9325	0.129	–
[1], 318.15 K, x1 = 0.0458	0.0698	–
[1], 318.15 K, x1 = 0.1	0.141	–
[1], 318.15 K, x1 = 0.1556	0.207	–
[1], 318.15 K, x1 = 0.2136	0.274	–
[1], 318.15 K, x1 = 0.2734	0.329	–
[1], 318.15 K, x1 = 0.3313	0.37	–
[1], 318.15 K, x1 = 0.3854	0.401	–
[1], 318.15 K, x1 = 0.4221	0.415	–
[1], 318.15 K, x1 = 0.4655	0.427	–
[1], 318.15 K, x1 = 0.5127	0.431	–
[1], 318.15 K, x1 = 0.5632	0.429	–
[1], 318.15 K, x1 = 0.6217	0.416	–
[1], 318.15 K, x1 = 0.6845	0.388	–
[1], 318.15 K, x1 = 0.7505	0.344	–
[1], 318.15 K, x1 = 0.8187	0.28	–
[1], 318.15 K, x1 = 0.884	0.195	–
[1], 318.15 K, x1 = 0.9472	0.102	–
[2], 303.15 K, x1 = 0.0628	–	1.6e-07
[2], 303.15 K, x1 = 0.0928	–	2.36e-07
[2], 303.15 K, x1 = 0.1566	–	3.68e-07
[2], 303.15 K, x1 = 0.194	–	4.3e-07
[2], 303.15 K, x1 = 0.2507	–	5.07e-07
[2], 303.15 K, x1 = 0.3088	–	5.69e-07
[2], 303.15 K, x1 = 0.3502	–	6.04e-07
[2], 303.15 K, x1 = 0.3916	–	6.3e-07
[2], 303.15 K, x1 = 0.453	–	6.49e-07
[2], 303.15 K, x1 = 0.5059	–	6.51e-07
[2], 303.15 K, x1 = 0.5463	–	6.4e-07
[2], 303.15 K, x1 = 0.6022	–	6.17e-07
[2], 303.15 K, x1 = 0.6588	–	5.71e-07
[2], 303.15 K, x1 = 0.698	–	5.37e-07
[2], 303.15 K, x1 = 0.7527	–	4.73e-07
[2], 303.15 K, x1 = 0.7928	–	4.2e-07
[2], 303.15 K, x1 = 0.851	–	3.21e-07
[2], 303.15 K, x1 = 0.9115	–	2.06e-07
[2], 303.15 K, x1 = 0.942	–	1.4e-07
[2], 318.15 K, x1 = 0.1079	–	2.35e-07
[2], 318.15 K, x1 = 0.1326	–	2.91e-07
[2], 318.15 K, x1 = 0.1749	–	3.68e-07
[2], 318.15 K, x1 = 0.2201	–	4.34e-07
[2], 318.15 K, x1 = 0.2751	–	5.03e-07
[2], 318.15 K, x1 = 0.3257	–	5.54e-07
[2], 318.15 K, x1 = 0.3949	–	6.05e-07
[2], 318.15 K, x1 = 0.4521	–	6.3e-07
[2], 318.15 K, x1 = 0.4783	–	6.36e-07
[2], 318.15 K, x1 = 0.55	–	6.31e-07
[2], 318.15 K, x1 = 0.5996	–	6.16e-07
[2], 318.15 K, x1 = 0.6675	–	5.74e-07
[2], 318.15 K, x1 = 0.7318	–	5.24e-07
[2], 318.15 K, x1 = 0.8163	–	4.04e-07
[2], 318.15 K, x1 = 0.8728	–	3.17e-07
